# Biological target: T1, PARP1 (Homo sapiens, UniProt P09874)
# T1 construct: purchased BPS Bioscience
# Experiment: PARP1 biochemical assay (BPS Bioscience kit, chemiluminescent)
# Conditions: histone-coated plate, biotinylated NAD+, 60 min at 25° C., luminescence; read-out: PARP 1 inhibition IC50
# Protocol: Example 16: PARP1 Biochemical Assay
# The assay was performed using BPS Bioscience kit. The 96-well strip plate was coated with 50 μl of histone mixture and incubated at 4° C. overnight. The next day, the wells were blocked by adding 100 μl of blocking buffer. The plate was washed and 25 μl of appropriate concentration of PARP1 (25-75 ng/well) was added in all of the Test and Positive control wells. In the Negative control wells, the enzyme was replaced with 25 μl of water. 5 μl each of 10× PARP assay buffer and activated DNA was added in all the wells (Test, Positive and Negative control wells). 10× concentration of the test compounds were prepared and 5 μl test compounds were added to the respective wells. The reaction volume was made up to 45 μl by adding water to all of the wells. 5 μl of 10× PARP assay mixture containing biotinilated NAD^+ was added in each well and the plate was incubated at ambient temperature (25° C.) for 60 min. After washing the plate 50 μl of Streptavidin-HRP was added in each well, the plate was incubated at RT for 30 min. The plate was washed and the luminescence was read in PHERAStar plate reader after adding 100 μl of chemiluminescent substrate.
# PARP inhibition was calculated using the following formula:
# % PARP inhibition=100−[(RLU test compound treated sample−RLU negative control)/(RLU Positive control−RLU negative control)×100]
# IC50 values were calculated by plotting % inhibition against the respective concentrations of test compounds using GraphPad Prism 5.
# T1 sequence (P09874 whole entry): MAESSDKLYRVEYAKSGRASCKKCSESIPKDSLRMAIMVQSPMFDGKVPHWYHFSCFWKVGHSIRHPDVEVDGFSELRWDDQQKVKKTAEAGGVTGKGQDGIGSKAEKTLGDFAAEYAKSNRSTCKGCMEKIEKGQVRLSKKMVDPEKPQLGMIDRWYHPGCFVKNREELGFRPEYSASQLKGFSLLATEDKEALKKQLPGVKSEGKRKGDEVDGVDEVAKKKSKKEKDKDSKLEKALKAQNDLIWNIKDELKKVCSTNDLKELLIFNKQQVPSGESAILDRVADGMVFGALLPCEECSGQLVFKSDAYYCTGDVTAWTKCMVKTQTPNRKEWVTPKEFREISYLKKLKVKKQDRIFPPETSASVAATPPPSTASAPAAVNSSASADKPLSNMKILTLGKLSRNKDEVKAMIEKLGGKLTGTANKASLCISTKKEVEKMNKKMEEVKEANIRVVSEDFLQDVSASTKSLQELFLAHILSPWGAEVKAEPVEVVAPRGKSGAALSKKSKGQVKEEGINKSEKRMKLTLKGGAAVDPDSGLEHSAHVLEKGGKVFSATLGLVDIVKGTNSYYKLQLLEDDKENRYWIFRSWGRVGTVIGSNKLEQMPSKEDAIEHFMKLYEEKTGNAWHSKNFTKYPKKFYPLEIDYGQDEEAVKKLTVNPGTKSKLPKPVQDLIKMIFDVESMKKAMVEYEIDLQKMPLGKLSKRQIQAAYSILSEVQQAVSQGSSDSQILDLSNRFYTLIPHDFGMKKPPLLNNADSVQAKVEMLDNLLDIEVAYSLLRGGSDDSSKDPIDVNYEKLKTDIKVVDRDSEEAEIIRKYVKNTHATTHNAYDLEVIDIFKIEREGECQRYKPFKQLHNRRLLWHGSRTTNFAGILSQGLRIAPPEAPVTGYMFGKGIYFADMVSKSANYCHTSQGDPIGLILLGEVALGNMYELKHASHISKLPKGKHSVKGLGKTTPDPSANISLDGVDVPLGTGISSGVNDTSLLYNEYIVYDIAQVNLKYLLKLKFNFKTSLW
row,SMILES,IC50
1,"Cc1c(C2=C[C@H](N3CCN(c4ccc(C#N)cc4)CC3)CC2)[nH]c(=O)c2cccnc12 [Compound 9, (R)-4-(4-(3-(8-methyl-5-oxo-5,6-dihydro-1,6-naphthyridin-7-yl)cyclopent-2-en-1-yl)piperazin-1-yl)benzonitrile]",0.5 to 5 nM
2,"CCOC(=O)c1ccc(N2CCN([C@H]3C=C(c4cc5ncccc5c(=O)[nH]4)CC3)CC2)cc1 [Compound 20, Ethyl (R)-4-(4-(3-(5-oxo-5,6-dihydro-1,6-naphthyridin-7-yl)cyclopent-2-en-1-yl)piperazin-1-yl)benzoate]",0.5 to 5 nM
3,"O=C1NCc2cc(N3CCN([C@H]4C=C(c5cc6ncccc6c(=O)[nH]5)CC4)CC3)ccc21 [Compound 32, (R)-7-(3-(4-(1-oxoisoindolin-5-yl)piperazin-1-yl)cyclopent-1-en-1-yl)-1,6-naphthyridin-5(6H)-one]",0.5 to 5 nM

# Continued, values first:
row,IC50,SMILES
1,5.1 to 50 nM,"N#Cc1ccc(N2CCN([C@@H]3C=C(c4cc5sccc5c(=O)[nH]4)CC3)CC2)cc1 [Compound 45, (S)-4-(4-(3-(4-oxo-4,5-dihydrothieno[3,2-c]pyridin-6-yl)cyclopent-2-en-1-yl)piperazin-1-yl)benzonitrile]"
2,0.5 to 5 nM,"N#Cc1ccc(N2CCN([C@H]3C=C(c4cc5ncncc5c(=O)[nH]4)CC3)CC2)cc1 [Compound 40, (R)-4-(4-(3-(5-oxo-5,6-dihydropyrido[4,3-d]pyrimidin-7-yl)cyclopent-2-en-1-yl)piperazin-1-yl)benzonitrile]"
